In patent publication EP4509511A1, “SUBSTITUTED SPIRO-ISOXAZOLINYL LACTAMS, SALTS THEREOF AND THEIR USE AS HERBICIDALLY ACTIVE SUBSTANCES” (Bayer Aktiengesellschaft, priority 2023, dated 2025):

Legend:
[1] = test system: ECHCG; test: Herbicidal pre-emergence action - Part I; format: in vivo, Echinochloa crus-galli; settings: visual grading after ca. 3 weeks vs untreated controls
Summary of the method: (§1)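 Visual % injury, ~3 weeks post-application, relative to untreated pots. Treatment: aqueous WP/EC preparation with 0.5% additive sprayed pre-emergence on soil at 600 l/ha, application rate 1280 g/ha or less.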

[2] = test system: MATIN; test: Herbicidal pre-emergence action - Part I; format: in vivo, Matricaria inodora; settings: visual grading after ca. 3 weeks vs untreated controls
Summary of the method: as §1

[3] = test system: SETVI; test: Herbicidal pre-emergence action - Part I; format: in vivo, Setaria viridis; settings: visual grading after ca. 3 weeks vs untreated controls
Summary of the method: as §1

[4] = test system: AMARE; test: Herbicidal pre-emergence action - Part I; format: in vivo, Amaranthus retroflexus; settings: for pre-emergence activity at 320g/ha against AMARE in % / pre-emergence activity at 1280g/ha against AMARE in %: visual grading after ca. 3 weeks vs untreated controls
Summary of the method: as §1

[5] = test system: KCHSC; test: Herbicidal pre-emergence action - Part I; format: in vivo, Kochia scoparia; settings: 1280 g/ha
Summary of the method: as §1

[6] = test system: AMARE; test: Herbicidal pre-emergence action - Part II; format: in vivo, Amaranthus retroflexus; settings: visual grading after ca. 3 weeks vs untreated controls
From the text: (§2) Seeds of mono- and dicotyledonous weed plants and crop plants were sown, in plastic or organic planting pots, in sandy loam and covered with soil. The compounds according to the invention, formulated in the form of wettable powders (WP) or as emulsifiable concentrates (EC), were applied to the surface of the covering soil as aqueous suspension or emulsion, with the addition of 0.5% of an additive, at an application rate of 600 1 of water/ha (converted). Following treatment, the pots were placed in a greenhouse and kept under optimum growth conditions for the test plants. The visual grading of the damage to the test plants was carried out after ca. 3 weeks in comparison to untreated controls (herbicidal effect in percent (%): 100% effect = plants have died off, 0% effect = as control plants). Tables C1 to C12 below show the effects of selected compounds of the general formula (I) according to table 1 on various harmful plants and an application rate corresponding to 320 g/ha or below obtained by the experimental procedure mentioned above. Table C1: pre-emergence activity at 320g/ha against ABUTH in %

[7] = test system: ECHCG; test: Herbicidal pre-emergence action - Part II; format: in vivo, Echinochloa crus-galli
From the text: as §2

[8] = test system: LOLRI; test: Herbicidal pre-emergence action - Part II; format: in vivo, Lolium rigidum; settings: 320 g/ha; Table C7
From the text: as §2

[9] = test system: SETVI; test: Herbicidal pre-emergence action - Part II; format: in vivo, Setaria viridis
From the text: as §2

[10] = test system: GLXMA; test: Pre-emergence effects on crop plants; format: in vivo, Glycine max; settings: crop plant
From the text: Seeds of mono- and dicotyledonous weed plants and crop plants were sown, in plastic or organic planting pots, in sandy loam and covered with soil. The compounds according to the invention, formulated in the form of wettable powders (WP) or as emulsifiable concentrates (EC), were applied to the surface of the covering soil as aqueous suspension or emulsion, with the addition of 0.5% of an additive, at an application rate of 600 1 of water/ha (converted). Following treatment, the pots were placed in a greenhouse and kept under optimum growth conditions for the test plants. The visual grading of the damage to the test plants was carried out after ca. 3 weeks in comparison to untreated controls (herbicidal effect in percent (%): 100% effect = plants have died off, 0% effect = as control plants). Tables D1 to D5 below show the effects of various compounds of the general formula (I) according to Table 1 on various crop plants and an application rate corresponding to 320 g/ha or below obtained by the experimental procedure mentioned above in Biological Examples, Section C. Table […]: pre-emergence activity at 320g/ha against ZEAMX in %

[11] = test system: ZEAMX; test: Post-emergence effects on crop plants; format: in vivo, Zea mays; settings: crop plant
Summary of the method: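 Crop plants were grown in sandy loam in the greenhouse and sprayed at the single-leaf stage, 2–3 weeks after sowing, with WP or EC formulations plus 0.5% additive in 600 l water/ha, at rates of 320 g/ha or below. Injury was scored visually about 3 weeks later as % effect versus untreated controls (100% = plants dead).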

[12] = test system: ORYZA; test: Post-emergence effects on crop plants; format: in vivo, Oryza sativa; settings: crop plant
From the text: (§3) Seeds of mono- and dicotyledonous weed plants and crop plants were sown, in plastic or organic planting pots, in sandy loam, covered with soil and grown in a greenhouse under controlled growth conditions. 2 to 3 weeks after sowing, the test plants were sprayed in the single-leaf stage. The compounds according to the invention, formulated in form of wettable powders (WP) or as emulsifiable concentrates (EC), were sprayed onto the green plant parts as aqueous suspension or emulsion, with the addition of 0.5% of an additive, at an application rate of 600 1 of water/ha (converted). The test plants were placed in the greenhouse for ca. 3 weeks under optimum growth conditions, and then the effect of the preparations was assessed visually in comparison with untreated controls (herbicidal effect in percent (%): 100% effect = plants have died off, 0% effect = as control plants). Tables F1 to F5 below show the effects of selected compounds of the general formula (I) according to table 1 on various crop plants and an application rate corresponding to 320 g/ha or below obtained by the experimental procedure mentioned above. Table […]: post-emergence activity at 5g/ha against ZEAMX in %

[13] = test system: GLXMA; test: Post-emergence effects on crop plants; format: in vivo, Glycine max; settings: crop plant
From the text: as §3

[14] = Table A10a, visual grading after ca. 3 weeks vs untreated controls

SMILES	pre-emergence activity at 320g/ha against ECHCG in % [1] [%]	pre-emergence activity at 1280g/ha against ECHCG in % [1] [%]	pre-emergence activity at 320g/ha against MATIN in % [2] [%]	pre-emergence activity at 1280g/ha against MATIN in % [2] [%]	pre-emergence activity at 320g/ha and against SETVI in % [3] [%]	pre-emergence activity at 1280g/ha and against SETVI in % [3] [%]	pre-emergence activity at 320g/ha against AMARE in % [4] [%]	pre-emergence activity at 1280g/ha against AMARE in % [4] [%]	pre-emergence activity at 1280g/ha against KCHSC in % ([5]; 504 h) [%]	pre-emergence activity at 1280g/ha against KCHSC in % [5, 14] [%]	pre-emergence activity at 320g/ha against AMARE in % [6] [%]	pre-emergence activity against ECHCG ([7]; 320 g/ha, Table C6a) [%]	pre-emergence activity against LOLRI [8] [%]	pre-emergence activity against SETVI ([9]; 320 g/ha, Table C10a) [%]	pre-emergence activity against GLXMA ([10]; 80 g/ha, Table D4b) [%]	post-emergence activity against ZEAMX ([11]; 80 g/ha, Table F1c) [%]	post-emergence activity against ZEAMX ([11]; 320 g/ha, Table F1d) [%]	post-emergence activity against ORYZA ([12]; 320 g/ha, Table F3a) [%]	post-emergence activity against GLXMA ([13]; 80 g/ha, Table F4c) [%]	also measured
Cc1ccsc1C1=NOC2(CCCN(Cc3c(F)cccc3F)C2=O)C1 (racemic) [Compound I-2]	100	100	90	90	100	100	90	90	90	90	90	100	90	100	0	0	20	20	0	pre-emergence activity at 80g/ha and against SETVI in % ([3]; 80 g/ha): 100%; pre-emergence activity against ECHCG ([7]; 80 g/ha, Table C6b): 90%; pre-emergence activity against SETVI ([9]; 80 g/ha, Table C10b): 100%
Cc1ccsc1C1=NOC2(CCN(Cc3c(F)cccc3F)C2=O)C1 (racemic) [Compound I-16, 7-(2,6-Difluorobenzyl)-3-(3-methyl-2-thienyl)-1-oxa-2,7-diazaspiro[4.4]non-2-en-6-one]	100	100	90	90	100	100	90	90		90	80	90	100	90	10	0	0	0	0	pre-emergence activity against GLXMA ([10]; Table D4a, title: 320g/ha, application rate: 80 g/ha): 20%; post-emergence activity against ORYZA ([12]; Table F3b, title: 80g/ha, application rate column: 320 g/ha): 0%; post-emergence activity against GLXMA ([13]; Table F4d, title: 320 g/ha, application rate: 80 g/ha): 0%
O=C1N(Cc2ccccc2F)CCC12CC(c1c(F)cccc1F)=NO2 (racemic) [Compound I-10]		100	90	90	90	100	90	90	90	90	80	90	80	90	10	0	0	0	0	pre-emergence activity at 80g/ha against AMARE in % ([4]; 80 g/ha, 504 h): 90%
